# Measured values taken from paper PMC6279831, “Reconstructing the evolutionary history of F420-dependent dehydrogenases” (Scientific Reports, 2018).
# Experiments:
# AncD1 [1] = system: AncD1; design: steady-state kinetics with 20 uM F420, absorbance decrease at 400 nm, pH 7.5, 25 °C; details: 20 uM F420, pH 7.5, 25 °C; substrate
# Method: Sugars (phosphorylated as well as non-phosphorylated) and alcohols were tested as substrates. D-glucose-6-phosphate (G6P) was used as a prototype substrate to initially verify activity. Other 6-phosphorylated sugars tested were: D-fructose-6-phosphate, D-mannose-6-phosphate and D-glucosamine-6-phosphate. D-glucose, D-fructose, D-mannose, D-xylose, D-galactose-1-phosphate, D-glucose-1-phosphate, isopropanol, isobutanol, butanol and cyclohexanol were also tested for activity. Kinetics of all enzymes was measured in a Synergy MX microplate reader (BioTek) using 96-well F-bottom plates (Greiner Bio-One GmbH) at 25 °C. Assays were performed in a volume of 200 µL, containing 20 µM F420, 50–100 nM of enzyme and varying concentrations of the substrates in buffer (50 mM KPi, pH 7.5). Reaction was started by adding 100 µL of enzyme. All measurements were followed at λ = 400 nm for 3 min. The observed rates (kobs) were calculated by using a molecular extinction coefficient of ε400 (F420) = 25.7 mM^−1cm^−1. All experiments were repeated three times.
# FGD-Cryar (FSD-Cryar) = biological target: T1, FGD-Cryar (FSD-Cryar) (Cryptosporangium arvum, UniProt A0A010YY07); assay: fluorescence quenching of FMN (ex […] nm, em […] nm), one-site fit; type: binding; details: read-out: FGD-Noca (FSD-Noca) / kcat [s^-1]
# T1 construct: gene CryarDRAFT_1153
# AncD1 [2] = assay: as above; type: binding; details: 0.1 µM cofactor, 25 °C; apparent KD; read-out: FGD-Noca (FSD-Noca) / kcat [s^-1]
# FGD-Noca (FSD-Noca) = biological target: T2, FGD-Noca (FSD-Noca) (Nocardioidaceae bacterium Broad-1, UniProt E9V3D1); assay: as above; type: binding; details: read-out: FGD-Noca (FSD-Noca) / kcat [s^-1]
# T2 construct: full-length, codon-optimised, expressed in E. coli TOP10 (pBAD) as native protein, no SUMO; purified by anion exchange
Km (AncD1 [1]),SMILES,Kd (FGD-Cryar (FSD-Cryar)),Kd (AncD1 [2]),Kd (FGD-Noca (FSD-Noca))
45 ± 15 mM,O=P(O)(O)OC[C@H]1OC(O)(CO)[C@@H](O)[C@@H]1O (stereo partly drawn) [D-fructose-6-phosphate],,,
7.2 ± 4.7 mM,O=P(O)(O)OC[C@H]1OC(O)[C@@H](O)[C@@H](O)[C@@H]1O (stereo partly drawn) [D-mannose-6-phosphate],,,
1 ± 0.19 mM,O=P(O)(O)OC[C@H]1OC(O)[C@H](O)[C@@H](O)[C@@H]1O (stereo partly drawn) [D-glucose-6-phosphate],,,
,Cc1cc2nc3c(=O)[nH]c(=O)nc-3n(C[C@H](O)[C@H](O)[C@H](O)COP(=O)(O)O)c2cc1C [FMN],> 150 µM,> 150 µM,> 150 µM
